Two substances from paper PMC12744750 (Plant Communications, 2025) can be followed below.

Ends that are not written are not given here.

Series [1] concerns root epidermal cells, endomembrane markers. Kind of series: Subcellular localization by confocal microscopy. Format: cell-based, Arabidopsis. The source says:
(§1) proPLS::PLS:GFP comprises a 1.5-kb PLS promoter sequence ([Casson et al., 2002]) fused to the PLS open reading frame in pMDC107 (obtained from Prof. P.J. Hussey, Durham University) as a C-terminal GFP translational fusion. The PLS ORF with its 1.5-kb promoter was amplified from the TOPO 2.1 vector, which contained the PLS gene sequence with promoter ([Casson et al., 2002]); the primers used for cloning are listed in supplemental Table 9. pls mutant plants were transformed using the method of [Clough and Bent (1998)]. proPLS::GFP plants were generated using the 1.5-kb PLS promoter ([Casson et al., 2002]) fused to GFP in a wild-type background. p35S::GFP seedlings were obtained from Dr. Piers Hemsley, Durham University. […] Seedlings were scanned to create a digital image, and root lengths of the seedlings were measured using ImageJ. […]
CSLM images for propidium iodide and GFP were obtained using a Leica SP5 TCS confocal microscope as described previously ([Rowe et al., 2016]). proPLS::PLS:GFP, proPLS::GFP, and pro35S::GFP seedlings were grown for 7 days on Phytagel ½ MS10 medium before ∼25 mm of the root tip was removed and mounted in dH2O prior to imaging. […] For standard photomultiplier tubes, a laser power of 21% and a smart gain of 800–1000 mV were used, depending on the intensity of the fluorescence. […]

In another series the test system is pls mutant. Kind of series: Complementation of pls mutant by proPLS::PLS:GFP transgene. Format: in vivo, Arabidopsis thaliana. The following applies: single-copy proPLS::PLS:GFP in pls background.
Text: as §1, with “University. Seedlings of Arabidopsis thaliana ecotype C24 or Col-0, pls mutants, and transgenic PLS overexpressers, all from lab stocks, were grown on solid sterile half-strength (2.2 g/l) Murashige and Skoog medium (Sigma-Aldrich) containing 10 g/l sucrose (half-strength [½] MS10 medium) solidified with 2.5 g/l Phytagel (Sigma-Aldrich) in 90-mm Petri dishes (Sarstedt, Leicester, UK) at 21°C under a 16-h photoperiod as described previously ([Casson et al., 2002]; [Chilley et al., 2006]).” for “University.”

A further series has as its system ETR1:HA. Kind of series: Co-immunoprecipitation of PLS:GFP and ETR1:HA in N. benthamiana leaves. Format: binding, Arabidopsis. The following applies: Co-IP, western blotting, 3 days after infiltration. An excerpt: To investigate the interaction between the PLS peptide and the ethylene receptor ETR1, two DNA constructs were created by Gateway cloning. The […] PLS gene (without the stop codon) was inserted into the pEarlyGate103 (pEG103) destination vector, which contained the pro35S promoter and a C-terminal GFP tag, to produce a vector containing pro35S::PLS:GFP DNA. The ETR1 cDNA was inserted into the pEarlyGate301 (pEG301) vector to create a pro35S::ETR1:HA construct to express an ETR1 protein with a C-terminal HA tag. pro35S::GFP was used as a control. The primers used to clone ETR1 and PLS are found in supplemental Table 9.
Constructs were transiently expressed in N. benthamiana (tobacco) leaves as described previously ([Voinnet et al., 2003]). Experiments were replicated up to five times. Competent Agrobacterium tumefaciens GV3101 cells were transformed with the desired plasmid containing the gene of interest and injected with a syringe. The plants were approximately 7–10 weeks old; the chosen leaves were healthy and 3–6 cm in length, and 3 to 4 leaves were infiltrated with each construct. […]
SDS–PAGE was used to separate protein fragments. The complexed proteins from the pulldown assay were analyzed on 10%–12% acrylamide gels. […] The horseradish peroxidase conjugated to the secondary antibody was detected using X-ray film. […]
(In general: In western blotting, separated proteins are transferred to a membrane and probed.)

The test system of the next series is pls mutant primary root. Kind of series: Root length of pls mutant under exogenous copper. To be noted: 0-50 μM CuSO4, 12 days, n = 18. Format: in vivo, Arabidopsis thaliana.
Text: as §1
Root length (n = 18 from samples grown on 3 independent plates) was measured after 12 days using ImageJ. […]

“PLS:GFP: fusion protein of PLS with C-terminal GFP (MKPRLCFNFRRRSISPCYISISYLLVAKLFKLFKIH-{GFP}; cysteine pairing not given here)”: the “co-localization with RFP:HDEL (ER lumen)” value in series [1] (proPLS::PLS:GFP plants) is listed as “co-localized with the ER lumen–targeted red fluorescent protein RFP:HDEL”. Also, the “co-localization with ER Tracker Red” value in series [1] (proPLS::PLS:GFP stably transformed Arabidopsis) is on record as “co-localized with the ER marker dye ER-Tracker Red”. Besides, the “transformants fully complementing pls mutant” value in the series with pls mutant was “four”. Further, the “binding of ETR1:HA” value in the series with ETR1:HA was “ETR1:HA bound to PLS:GFP”.
For copper, the “copper hypersensitivity of pls mutant” value in the series with pls mutant primary root is “not copper hypersensitive”.
